Measured values as given in the kinase profiling compilation of Christmann-Franck et al. (2016).
Several values for one entry are separate records, joined by “and”; a condition that tells them apart may be missing. Equal entries are not always repeated.

Key:
Assay in all cases: radiometric filter-binding kinase assay, Kinase HotSpot
Details in all cases: compound 0.5 µM; ATP 10 µM
AURKA (human) = AURKA (human) (UniProt O14965)
CAMK2G (human) = CAMK2G (human) (UniProt Q13555)
CAMKK1 (human) = CAMKK1 (human) (UniProt Q8N5S9)
CAMKK2 (human) = CAMKK2 (human) (UniProt Q96RR4)
CDK1 CCNB1 (human) = CDK1 CCNB1 (human) (UniProt P06493+P14635)
CDK5 CDK5R1 p35 (human) = CDK5 CDK5R1 p35 (human) (UniProt Q00535+Q15078)
CDK9 CCNK (human) = CDK9 CCNK (human) (UniProt O75909+P50750)
CHEK2 (human) = CHEK2 (human) (UniProt O96017)
CSNK1G2 (human) = CSNK1G2 (human) (UniProt P78368)
DAPK3 (human) = DAPK3 (human) (UniProt O43293)
DYRK1B (human) = DYRK1B (human) (UniProt Q9Y463)
EPHA1 (human) = EPHA1 (human) (UniProt P21709)
EPHA3 (human) = EPHA3 (human) (UniProt P29320)
FGFR2 (human) = FGFR2 (human) (UniProt P21802)
FGR (human) = FGR (human) (UniProt P09769)
FRK (human) = FRK (human) (UniProt P42685)
FYN (human) = FYN (human) (UniProt P06241)
GRK6 (human) = GRK6 (human) (UniProt P43250)
GSK3B (human) = GSK3B (human) (UniProt P49841)
LTK (human) = LTK (human) (UniProt P29376)
MAP3K2 (human) = MAP3K2 (human) (UniProt Q9Y2U5)
MAPK14 (human) = MAPK14 (human) (UniProt Q16539)
MAPK3 (human) = MAPK3 (human) (UniProt P27361)
MAPKAPK3 (human) = MAPKAPK3 (human) (UniProt Q16644)
MARK1 (human) = MARK1 (human) (UniProt Q9P0L2)
MELK (human) = MELK (human) (UniProt Q14680)
MYLK2 (human) = MYLK2 (human) (UniProt Q9H1R3)
MYO3B (human) = MYO3B (human) (UniProt Q8WXR4)
NTRK1 (human) = NTRK1 (human) (UniProt P04629)
PAK1 (human) = PAK1 (human) (UniProt Q13153)
PAK7 (human) = PAK7 (human) (UniProt Q9P286)
PKN1 (human) = PKN1 (human) (UniProt Q16512)
PLK3 (human) = PLK3 (human) (UniProt Q9H4B4)
PNCK (human) = PNCK (human) (UniProt Q6P2M8)
PRKCE (human) = PRKCE (human) (UniProt Q02156)
PRKCH (human) = PRKCH (human) (UniProt P24723)
PRKG1 (human) = PRKG1 (human) (UniProt Q13976)
ROS1 (human) = ROS1 (human) (UniProt P08922)
RPS6KB1 (human) = RPS6KB1 (human) (UniProt P23443)
SYK (human) = SYK (human) (UniProt P43405)
ULK1 (human) = ULK1 (human) (UniProt O75385)
ULK3 (human) = ULK3 (human) (UniProt Q6PHR2)

DAPK3 (human), sequence (O43293 whole entry, looked up): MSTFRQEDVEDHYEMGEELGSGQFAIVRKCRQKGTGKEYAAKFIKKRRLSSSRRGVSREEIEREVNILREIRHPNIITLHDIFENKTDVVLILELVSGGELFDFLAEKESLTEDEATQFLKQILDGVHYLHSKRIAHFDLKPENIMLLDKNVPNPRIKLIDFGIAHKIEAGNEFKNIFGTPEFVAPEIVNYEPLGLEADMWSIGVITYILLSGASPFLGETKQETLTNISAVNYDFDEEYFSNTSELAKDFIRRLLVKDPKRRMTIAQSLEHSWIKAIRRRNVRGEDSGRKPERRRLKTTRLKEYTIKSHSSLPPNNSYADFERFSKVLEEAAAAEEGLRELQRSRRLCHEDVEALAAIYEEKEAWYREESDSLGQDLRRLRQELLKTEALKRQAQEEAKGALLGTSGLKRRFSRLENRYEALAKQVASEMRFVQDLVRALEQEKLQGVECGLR
MELK (human), sequence (Q14680 whole entry, looked up): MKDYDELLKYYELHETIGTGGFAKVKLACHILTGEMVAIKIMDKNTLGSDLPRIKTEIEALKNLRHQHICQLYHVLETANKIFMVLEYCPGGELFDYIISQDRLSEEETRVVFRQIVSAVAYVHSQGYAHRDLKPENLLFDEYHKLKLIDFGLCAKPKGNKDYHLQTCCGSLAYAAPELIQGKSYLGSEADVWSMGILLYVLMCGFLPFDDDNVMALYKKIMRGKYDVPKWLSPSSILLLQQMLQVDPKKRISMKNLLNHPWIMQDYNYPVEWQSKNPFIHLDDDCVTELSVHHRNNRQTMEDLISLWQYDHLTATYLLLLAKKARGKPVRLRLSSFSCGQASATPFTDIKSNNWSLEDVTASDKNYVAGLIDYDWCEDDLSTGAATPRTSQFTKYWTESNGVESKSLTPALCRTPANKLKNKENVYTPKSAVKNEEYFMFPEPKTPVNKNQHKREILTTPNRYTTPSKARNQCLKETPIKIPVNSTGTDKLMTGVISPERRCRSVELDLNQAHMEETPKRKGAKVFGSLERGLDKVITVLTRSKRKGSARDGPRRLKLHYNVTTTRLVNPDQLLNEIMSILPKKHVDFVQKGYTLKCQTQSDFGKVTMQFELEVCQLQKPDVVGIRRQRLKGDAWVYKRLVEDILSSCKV
PRKCH (human), sequence (P24723 whole entry, looked up): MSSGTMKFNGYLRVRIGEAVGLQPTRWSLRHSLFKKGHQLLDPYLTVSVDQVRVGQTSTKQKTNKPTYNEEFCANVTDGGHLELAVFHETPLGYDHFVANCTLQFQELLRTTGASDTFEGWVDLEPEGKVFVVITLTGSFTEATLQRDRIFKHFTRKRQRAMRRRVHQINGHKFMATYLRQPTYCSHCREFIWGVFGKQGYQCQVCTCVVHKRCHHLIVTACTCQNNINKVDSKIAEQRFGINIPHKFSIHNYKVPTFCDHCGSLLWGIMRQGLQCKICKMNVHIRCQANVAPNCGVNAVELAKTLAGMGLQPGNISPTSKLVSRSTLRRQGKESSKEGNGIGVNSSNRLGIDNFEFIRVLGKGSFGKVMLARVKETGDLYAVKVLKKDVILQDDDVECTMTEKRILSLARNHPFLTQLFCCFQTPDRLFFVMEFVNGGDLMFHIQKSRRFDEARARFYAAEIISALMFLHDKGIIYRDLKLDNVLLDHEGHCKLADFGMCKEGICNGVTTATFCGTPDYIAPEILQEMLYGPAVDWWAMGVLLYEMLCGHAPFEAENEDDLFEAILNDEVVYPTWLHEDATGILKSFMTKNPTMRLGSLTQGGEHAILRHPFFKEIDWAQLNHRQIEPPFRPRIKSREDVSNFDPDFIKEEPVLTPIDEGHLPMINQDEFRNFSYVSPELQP
NTRK1 (human), sequence (P04629 whole entry, looked up): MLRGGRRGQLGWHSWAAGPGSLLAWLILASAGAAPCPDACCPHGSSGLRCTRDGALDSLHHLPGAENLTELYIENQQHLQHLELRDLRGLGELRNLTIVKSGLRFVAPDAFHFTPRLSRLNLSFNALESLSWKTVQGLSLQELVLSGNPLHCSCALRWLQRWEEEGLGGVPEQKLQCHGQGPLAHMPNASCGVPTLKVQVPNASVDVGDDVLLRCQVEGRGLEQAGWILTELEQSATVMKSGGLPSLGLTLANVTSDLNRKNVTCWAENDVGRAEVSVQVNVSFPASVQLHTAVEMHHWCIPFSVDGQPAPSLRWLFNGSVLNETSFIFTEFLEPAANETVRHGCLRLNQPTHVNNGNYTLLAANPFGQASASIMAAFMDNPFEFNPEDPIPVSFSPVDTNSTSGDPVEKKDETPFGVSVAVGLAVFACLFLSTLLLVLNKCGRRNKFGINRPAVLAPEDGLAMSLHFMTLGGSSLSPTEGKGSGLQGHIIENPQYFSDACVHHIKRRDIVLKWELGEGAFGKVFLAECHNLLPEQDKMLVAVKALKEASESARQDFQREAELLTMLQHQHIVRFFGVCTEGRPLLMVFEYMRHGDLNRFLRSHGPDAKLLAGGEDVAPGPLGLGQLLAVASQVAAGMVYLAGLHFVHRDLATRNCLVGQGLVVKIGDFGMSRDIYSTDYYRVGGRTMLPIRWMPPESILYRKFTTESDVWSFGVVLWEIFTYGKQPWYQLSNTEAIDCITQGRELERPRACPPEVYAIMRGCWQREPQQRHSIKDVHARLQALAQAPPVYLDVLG
PNCK (human), sequence (Q6P2M8 whole entry, looked up): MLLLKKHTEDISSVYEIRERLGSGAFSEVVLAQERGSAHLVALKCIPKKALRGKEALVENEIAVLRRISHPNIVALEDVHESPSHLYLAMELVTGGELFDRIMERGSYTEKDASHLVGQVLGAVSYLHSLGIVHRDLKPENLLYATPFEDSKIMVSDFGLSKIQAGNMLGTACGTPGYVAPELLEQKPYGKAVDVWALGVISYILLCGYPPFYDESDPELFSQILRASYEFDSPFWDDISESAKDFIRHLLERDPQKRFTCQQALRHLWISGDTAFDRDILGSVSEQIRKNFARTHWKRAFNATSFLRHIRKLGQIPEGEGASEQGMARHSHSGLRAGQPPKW
EPHA1 (human), sequence (P21709 whole entry, looked up): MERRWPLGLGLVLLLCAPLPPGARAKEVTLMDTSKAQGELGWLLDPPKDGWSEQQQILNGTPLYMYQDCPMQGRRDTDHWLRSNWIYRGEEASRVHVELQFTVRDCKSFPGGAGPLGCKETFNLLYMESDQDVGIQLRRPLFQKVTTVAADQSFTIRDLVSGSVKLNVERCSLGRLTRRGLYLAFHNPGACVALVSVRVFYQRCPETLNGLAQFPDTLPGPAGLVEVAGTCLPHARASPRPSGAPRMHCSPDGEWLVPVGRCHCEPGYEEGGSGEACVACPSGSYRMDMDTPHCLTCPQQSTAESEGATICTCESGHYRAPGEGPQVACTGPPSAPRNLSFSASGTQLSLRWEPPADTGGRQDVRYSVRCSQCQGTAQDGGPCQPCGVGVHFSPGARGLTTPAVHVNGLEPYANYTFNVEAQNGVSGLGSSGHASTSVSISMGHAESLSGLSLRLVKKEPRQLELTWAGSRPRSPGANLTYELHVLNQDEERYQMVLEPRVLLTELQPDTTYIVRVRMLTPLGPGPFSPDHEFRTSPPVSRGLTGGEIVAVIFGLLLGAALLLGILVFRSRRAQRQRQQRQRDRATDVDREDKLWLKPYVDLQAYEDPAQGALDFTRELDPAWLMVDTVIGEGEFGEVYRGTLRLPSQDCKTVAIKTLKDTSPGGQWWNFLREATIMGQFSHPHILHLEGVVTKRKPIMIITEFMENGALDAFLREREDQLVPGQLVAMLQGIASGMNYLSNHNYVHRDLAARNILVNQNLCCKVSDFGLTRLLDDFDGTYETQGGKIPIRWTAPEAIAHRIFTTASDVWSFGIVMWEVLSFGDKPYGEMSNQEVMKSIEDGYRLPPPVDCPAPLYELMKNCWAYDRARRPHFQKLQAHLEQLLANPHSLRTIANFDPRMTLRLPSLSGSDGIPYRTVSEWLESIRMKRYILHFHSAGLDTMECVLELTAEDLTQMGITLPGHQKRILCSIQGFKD
CHEK2 (human), sequence (O96017 whole entry, looked up): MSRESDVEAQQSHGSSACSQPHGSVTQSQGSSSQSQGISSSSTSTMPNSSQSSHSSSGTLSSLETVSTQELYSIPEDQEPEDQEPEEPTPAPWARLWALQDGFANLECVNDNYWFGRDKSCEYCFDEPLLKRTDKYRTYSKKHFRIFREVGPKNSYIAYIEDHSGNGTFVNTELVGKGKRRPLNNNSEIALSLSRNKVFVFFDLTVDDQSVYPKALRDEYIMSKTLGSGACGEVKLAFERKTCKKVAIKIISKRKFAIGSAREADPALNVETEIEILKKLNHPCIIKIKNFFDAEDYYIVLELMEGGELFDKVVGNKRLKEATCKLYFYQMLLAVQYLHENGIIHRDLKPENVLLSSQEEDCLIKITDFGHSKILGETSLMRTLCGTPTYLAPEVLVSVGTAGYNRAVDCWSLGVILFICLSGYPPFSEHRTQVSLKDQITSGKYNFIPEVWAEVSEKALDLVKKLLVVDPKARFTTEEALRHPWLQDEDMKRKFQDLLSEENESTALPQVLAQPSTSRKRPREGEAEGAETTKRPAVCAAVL
AURKA (human), sequence (O14965 whole entry, looked up): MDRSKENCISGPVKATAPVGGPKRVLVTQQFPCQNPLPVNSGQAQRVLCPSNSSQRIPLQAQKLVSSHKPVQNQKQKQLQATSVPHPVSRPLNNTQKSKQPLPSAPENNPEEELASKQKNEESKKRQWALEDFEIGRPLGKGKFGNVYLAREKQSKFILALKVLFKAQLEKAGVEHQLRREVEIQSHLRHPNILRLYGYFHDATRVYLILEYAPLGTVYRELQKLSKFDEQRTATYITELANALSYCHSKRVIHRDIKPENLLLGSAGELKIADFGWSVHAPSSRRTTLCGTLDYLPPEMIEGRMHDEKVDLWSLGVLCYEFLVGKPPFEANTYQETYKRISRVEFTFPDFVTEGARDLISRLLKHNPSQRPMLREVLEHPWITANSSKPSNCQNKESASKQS

Compound: O=C1NC(=O)c2c1c1c3ccccc3n3c1c1c2c2ccccc2n1C1CCC3O1
- residual activity (AURKA (human)): 22.3%
- residual activity (CAMK2G (human)): 8.36%
- residual activity (CAMKK1 (human)): 27.2%
- residual activity (CAMKK2 (human)): 7.93%
- residual activity (CDK1 CCNB1 (human)): 29.9%
- residual activity (CDK5 CDK5R1 p35 (human)): 23.3%
- residual activity (CDK9 CCNK (human)): 15.8%
- residual activity (CHEK2 (human)): 13%
- residual activity (CSNK1G2 (human)): 81.8%
- residual activity (DAPK3 (human)): 24.6%
- residual activity (DYRK1B (human)): 3.15%
- residual activity (EPHA1 (human)): 90.1%
- residual activity (EPHA3 (human)): 96.5%
- residual activity (FGFR2 (human)): 34.1%
- residual activity (FGR (human)): 30.9%
- residual activity (FRK (human)): 102%
- residual activity (FYN (human)): 59.9%
- residual activity (GRK6 (human)): 55.6%
- residual activity (GSK3B (human)): 4.6%
- residual activity (LTK (human)): 21.8%
- residual activity (MAP3K2 (human)): 14%
- residual activity (MAPK14 (human)): 102%
- residual activity (MAPK3 (human)): 102%
- residual activity (MAPKAPK3 (human)): 93.1%
- residual activity (MARK1 (human)): 10.4%
- residual activity (MELK (human)): 7.13%
- residual activity (MYLK2 (human)): 7.76%
- residual activity (MYO3B (human)): 19.1%
- residual activity (NTRK1 (human)): 4.98%
- residual activity (PAK1 (human)): 23.6%
- residual activity (PAK7 (human)): 64.7%
- residual activity (PKN1 (human)): 2.68%
- residual activity (PLK3 (human)): 52.5%
- residual activity (PNCK (human)): 50.5%
- residual activity (PRKCE (human)): 28.4%
- residual activity (PRKCH (human)): 47.6%
- residual activity (PRKG1 (human)): 35.7% and 41.3%
- residual activity (ROS1 (human)): 1.6%
- residual activity (RPS6KB1 (human)): 2.38%
- residual activity (SYK (human)): 15.8%
- residual activity (ULK1 (human)): 73.1%
- residual activity (ULK3 (human)): 33%

Compound: CCCC(=O)Oc1ccc2[nH]c(C(=O)c3cc4ccccc4[nH]3)cc2c1
- residual activity (AURKA (human)): 94.6%
- residual activity (CAMK2G (human)): 99.4%
- residual activity (CAMKK1 (human)): 106%
- residual activity (CAMKK2 (human)): 84.6%
- residual activity (CDK1 CCNB1 (human)): 106%
- residual activity (CDK5 CDK5R1 p35 (human)): 97.5%
- residual activity (CDK9 CCNK (human)): 104%
- residual activity (CHEK2 (human)): 99%
- residual activity (CSNK1G2 (human)): 95.5%
- residual activity (DAPK3 (human)): 88.5%
- residual activity (DYRK1B (human)): 103%
- residual activity (EPHA1 (human)): 88.8%
- residual activity (EPHA3 (human)): 96.8%
- residual activity (FGFR2 (human)): 100%
- residual activity (FGR (human)): 88.4%
- residual activity (FRK (human)): 98.2%
- residual activity (FYN (human)): 102%
- residual activity (GRK6 (human)): 95.8%
- residual activity (GSK3B (human)): 94%
- residual activity (LTK (human)): 87.5%
- residual activity (MAP3K2 (human)): 81.7%
- residual activity (MAPK14 (human)): 102%
- residual activity (MAPK3 (human)): 87.9%
- residual activity (MAPKAPK3 (human)): 94.3%
- residual activity (MARK1 (human)): 96.4%
- residual activity (MELK (human)): 96.4%
- residual activity (MYLK2 (human)): 98.2%
- residual activity (MYO3B (human)): 98.6%
- residual activity (NTRK1 (human)): 98.6%
- residual activity (PAK1 (human)): 95.8%
- residual activity (PAK7 (human)): 91%
- residual activity (PKN1 (human)): 94.6%
- residual activity (PLK3 (human)): 98.4%
- residual activity (PNCK (human)): 99.4%
- residual activity (PRKCE (human)): 91%
- residual activity (PRKCH (human)): 93.6%
- residual activity (PRKG1 (human)): 104% and 95.1%
- residual activity (ROS1 (human)): 97%
- residual activity (RPS6KB1 (human)): 94.5%
- residual activity (SYK (human)): 93.9%
- residual activity (ULK1 (human)): 103%
- residual activity (ULK3 (human)): 89.5%

Compound: CNC(=O)c1cc(Oc2ccc(NC(=O)Nc3ccc(Cl)c(C(F)(F)F)c3)cc2)ccn1
- residual activity (AURKA (human)): 103%
- residual activity (CAMK2G (human)): 108%
- residual activity (CAMKK1 (human)): 103%
- residual activity (CAMKK2 (human)): 103%
- residual activity (CDK1 CCNB1 (human)): 98.5%
- residual activity (CDK5 CDK5R1 p35 (human)): 99.9%
- residual activity (CDK9 CCNK (human)): 101%
- residual activity (CHEK2 (human)): 102%
- residual activity (CSNK1G2 (human)): 88.9%
- residual activity (DAPK3 (human)): 92.9%
- residual activity (DYRK1B (human)): 93.2%
- residual activity (EPHA1 (human)): 87.7%
- residual activity (EPHA3 (human)): 95.5%
- residual activity (FGFR2 (human)): 72.7%
- residual activity (FGR (human)): 88.7%
- residual activity (FYN (human)): 91.6%
- residual activity (GRK6 (human)): 107%
- residual activity (GSK3B (human)): 101%
- residual activity (LTK (human)): 99.9%
- residual activity (MAP3K2 (human)): 109%
- residual activity (MAPK14 (human)): 40.2%
- residual activity (MAPK3 (human)): 105%
- residual activity (MAPKAPK3 (human)): 100%
- residual activity (MARK1 (human)): 80.3%
- residual activity (MELK (human)): 93.6%
- residual activity (MYLK2 (human)): 96.1%
- residual activity (MYO3B (human)): 85.6%
- residual activity (NTRK1 (human)): 76.1%
- residual activity (PAK1 (human)): 108%
- residual activity (PAK7 (human)): 95.9%
- residual activity (PKN1 (human)): 106%
- residual activity (PLK3 (human)): 99.3%
- residual activity (PNCK (human)): 94.7%
- residual activity (PRKCE (human)): 96.4%
- residual activity (PRKCH (human)): 107%
- residual activity (PRKG1 (human)): 104% and 88.6%
- residual activity (ROS1 (human)): 95.7%
- residual activity (RPS6KB1 (human)): 91.4%
- residual activity (SYK (human)): 101%
- residual activity (ULK1 (human)): 94.3%
- residual activity (ULK3 (human)): 103%
